From PubChem BioAssay AID624167 (Sanford-Burnham Center for Chemical Genomics, 2012) come the findings set out here.

Assay [1] in a line: Peg3 promoter luciferase inhibitors, potency, dose response, cell-based, HeLa, CREF/GAPDH counter-screen panel (AID 624167). Particulars: CREF/GAPDH counter-screens; GAPDH; mean of runs. On the technique in general: The purpose of a counterscreen is to sort out artefacts and off-target activity.
In the next assay the test system is GAPDH. The assay is described as above. As to conditions: CREF/GAPDH counter-screens.
In assay [2] the target is PEG-3 (UniProt Q6IN02). The description is as above. As to conditions: HeLa PEG-Prom luciferase reporter, overnight, CREF/GAPDH counter-screens, mean of runs. On the technique in general: A reporter such as luciferase makes a cellular process visible.
PEG-3 (UniProt Q6IN02), sequence (Q6IN02 whole entry, looked up): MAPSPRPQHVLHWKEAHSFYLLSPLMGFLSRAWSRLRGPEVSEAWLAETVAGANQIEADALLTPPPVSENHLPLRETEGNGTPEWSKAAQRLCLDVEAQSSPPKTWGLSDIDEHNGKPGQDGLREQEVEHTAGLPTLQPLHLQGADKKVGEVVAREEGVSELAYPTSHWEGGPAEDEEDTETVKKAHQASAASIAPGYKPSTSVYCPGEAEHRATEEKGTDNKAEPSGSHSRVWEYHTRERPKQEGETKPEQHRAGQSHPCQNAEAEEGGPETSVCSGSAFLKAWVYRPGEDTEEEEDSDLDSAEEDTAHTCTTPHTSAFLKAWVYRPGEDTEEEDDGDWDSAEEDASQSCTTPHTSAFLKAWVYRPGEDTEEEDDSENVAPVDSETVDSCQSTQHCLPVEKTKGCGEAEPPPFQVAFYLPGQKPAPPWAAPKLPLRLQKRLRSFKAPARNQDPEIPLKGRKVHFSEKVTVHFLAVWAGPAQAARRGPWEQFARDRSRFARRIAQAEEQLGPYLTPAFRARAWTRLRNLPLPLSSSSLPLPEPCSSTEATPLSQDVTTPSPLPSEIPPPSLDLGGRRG
The test system of assay [3] is PEG-3. The assay is described as above. As to conditions: HeLa PEG-Prom luciferase reporter, overnight, CREF/GAPDH counter-screens.
In another assay the test system is Rat fibroblasts (CREF). Described as above. Particulars: CREF/GAPDH counter-screens.
The mark [4] stands for this setting: run 1, dose range 1, individual replicate IC50 per panel.
Setting [5] is: run 2, dose range 1, individual replicate IC50 per panel.

Each structure is given as a SMILES string. Activity calls are given as the source filed them.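 The calls were made as follows: active = mean IC50 for reducing PEG3 promoter reporter signal at or below a set limit, with IC50 above the limit in both counter screens; inactive = the rest, including counter screen hits.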

As usually defined, the IC50 is the concentration at which inhibition is half-maximal.

For `COc1ccccc1Nc1nc(-c2sc(NC(=O)c3ccco3)nc2C)cs1`, the IC50 in assay [1] is > 100 µM (inactive); with GAPDH (setting [4]), more than 100 µM; in the assay on GAPDH (setting [5]) it was more than 100 µM; in the assay on PEG-3 [3] (setting [4]), 7.41 µM; with PEG-3 [3] (setting [5]) it was more than 100 µM; in the assay with Rat fibroblasts (CREF) (mean of runs), > 100 µM (inactive). Further, the IC50 in the assay with Rat fibroblasts (CREF) (setting [4]) and in the assay with Rat fibroblasts (CREF) (setting [5]) was more than 100 µM in each case. Moreover, the IC50 entry at PEG-3 [2] was “inactive”.

On to `Cc1ccc(/C=C2\SC(=S)N(CCCC(=O)Nc3ccccn3)C2=O)cc1`, for which the IC50 in assay [1] is 12.8 µM; with GAPDH (setting [4]) it was 17.7 µM; with GAPDH (setting [5]), 7.78 µM; at PEG-3 [2] it was 1.9 µM; in the assay with PEG-3 [3] (setting [4]), 1.33 µM; in the assay with PEG-3 [3] (setting [5]), 2.48 µM. The IC50 in the assay with Rat fibroblasts (CREF) (mean of runs) was > 100 µM (inactive); with Rat fibroblasts (CREF) (setting [4]) it was more than 100 µM; in the assay with Rat fibroblasts (CREF) (setting [5]), more than 100 µM.

Regarding `OCCCNc1nccc(-c2cc(Nc3cccc(Cl)c3)ncn2)n1`, in assay [1], the IC50 result was “inactive”. Further, the IC50 is more than 100 µM in the assay with GAPDH (setting [4]); 0.913 µM in the assay on GAPDH (setting [5]); 0.497 µM on PEG-3 [2]; 0.661 µM in the assay on PEG-3 [3] (setting [4]); 0.333 µM in the assay with PEG-3 [3] (setting [5]); 59.6 µM (inactive) in the assay with Rat fibroblasts (CREF) (mean of runs). Further, the half-inhibitory concentration (IC50) in the assay with Rat fibroblasts (CREF) (setting [4]) is 19.1 µM; in the assay with Rat fibroblasts (CREF) (setting [5]), more than 100 µM.

Consider `CC1=NOC(=O)/C1=C\c1ccc(-c2ccccc2Br)o1`, for which the IC50 in assay [1] was 18.3 µM; in the assay on GAPDH (setting [4]), 16.9 µM; in the assay with GAPDH (setting [5]) it was 19.7 µM; on PEG-3 [2], 10.7 µM; in the assay with PEG-3 [3] (setting [4]), 11.3 µM; in the assay with PEG-3 [3] (setting [5]), 10.1 µM. In addition, the figures for the IC50 in the assay on Rat fibroblasts (CREF) (mean of runs), in the assay on Rat fibroblasts (CREF) (setting [4]) and in the assay on Rat fibroblasts (CREF) (setting [5]) were 50 µM, 24.6 µM and 75.3 µM, respectively.

In the case of `Cc1cccc(OCC(=O)NCC(=O)N/N=C/c2cc(Br)cc(Br)c2O)c1`, the IC50 in assay [1] was > 100 µM (inactive); in the assay on GAPDH (setting [4]), more than 100 µM; in the assay on GAPDH (setting [5]) it was more than 100 µM; at PEG-3 [2], 7.91 µM; in the assay with PEG-3 [3] (setting [4]) it was 9.95 µM; with PEG-3 [3] (setting [5]), 5.87 µM. Besides, the IC50 in the assay on Rat fibroblasts (CREF) (mean of runs) was 47.1 µM; in the assay with Rat fibroblasts (CREF) (setting [4]) it was 42.2 µM; in the assay with Rat fibroblasts (CREF) (setting [5]), 52 µM.

As to `O=C(CSC1c2ccccc2-c2ccccc21)N/N=C/c1ccccc1O`, the IC50 is > 100 µM (inactive) in assay [1]; more than 100 µM in the assay on GAPDH (setting [4]); more than 100 µM in the assay with GAPDH (setting [5]); 3.04 µM with PEG-3 [3] (setting [4]); more than 100 µM in the assay on PEG-3 [3] (setting [5]); 69.5 µM (inactive) in the assay on Rat fibroblasts (CREF) (mean of runs). Besides, the IC50 with Rat fibroblasts (CREF) (setting [4]) is more than 100 µM; with Rat fibroblasts (CREF) (setting [5]), 38.9 µM. The IC50 entry on PEG-3 [2] is “inactive”.

For `CCCC(=O)NC(c1ccc(OC)cc1)c1ccc2cccnc2c1O` (stereo unspecified), the IC50 result in assay [1] was “inactive”. Also, the half-inhibitory concentration (IC50) with GAPDH (setting [4]) was 57.7 µM; with GAPDH (setting [5]) it was 70.4 µM; on PEG-3 [2], 1.74 µM; in the assay with PEG-3 [3] (setting [4]) it was 2.76 µM; in the assay on PEG-3 [3] (setting [5]), 0.719 µM; in the assay on Rat fibroblasts (CREF) (mean of runs) it was 50.7 µM (inactive). In addition, the IC50 in the assay with Rat fibroblasts (CREF) (setting [4]) was more than 100 µM; with Rat fibroblasts (CREF) (setting [5]) it was 1.48 µM.

Consider `CN1C/C(=C/c2ccccc2[N+](=O)[O-])C(=O)/C(=C\c2ccccc2[N+](=O)[O-])C1`, for which the IC50 entry in assay [1] was “inactive”. The 50% inhibitory concentration (IC50) is more than 100 µM in the assay on GAPDH (setting [4]); 79.4 µM with GAPDH (setting [5]); 5.91 µM at PEG-3 [2]; 5.67 µM in the assay on PEG-3 [3] (setting [4]); 6.14 µM in the assay with PEG-3 [3] (setting [5]); 27.4 µM with Rat fibroblasts (CREF) (mean of runs). Besides, the figures for the IC50 in the assay on Rat fibroblasts (CREF) (setting [4]) and in the assay on Rat fibroblasts (CREF) (setting [5]) were 30 µM and 24.9 µM, respectively.

As to `CN(C)c1c([N+](=O)[O-])cc(N2C(=O)C=CC2=O)cc1[N+](=O)[O-]`, the concentration for half-maximal inhibition (IC50) is 23.6 µM in assay [1]; 24.6 µM in the assay on GAPDH (setting [4]); 22.7 µM in the assay with GAPDH (setting [5]); 6.53 µM on PEG-3 [2]; 7.49 µM in the assay with PEG-3 [3] (setting [4]); 5.58 µM in the assay with PEG-3 [3] (setting [5]). Moreover, the IC50 in the assay with Rat fibroblasts (CREF) (mean of runs) is 14 µM; in the assay with Rat fibroblasts (CREF) (setting [4]) it was 10.7 µM; in the assay with Rat fibroblasts (CREF) (setting [5]), 17.3 µM.
